Laboratory results reported in the CheMixHub ionic liquid set.

Test: xn = mol fraction of the nth substance listed

CN(CCO)CCO + CCCC[n+]1ccn(C)c1.F[B-](F)(F)F + O
viscosity [mPa·s], 101 kPa
Conditions	293.15 K	303.15 K	313.15 K	323.15 K	333.15 K
x2 = 0.0987, x1 = 0.7994	86.7	48.2	28.8	18.4	12.32
x2 = 0.0989, x1 = 0.623	77.4	43.7	26.1	16.6	11.12
x2 = 0.0991, x1 = 0.4459	59.2	33.7	20.4	13.16	8.94
x2 = 0.0993, x1 = 0.2681	32.9	19.2	12.08	8.13	5.78
x2 = 0.0995, x1 = 0.0895	8.59	5.78	4.14	3.11	2.41
x2 = 0.1972, x1 = 0.7097	77.7	43.1	26	16.8	11.42
x2 = 0.1978, x1 = 0.5528	67.4	37.3	22.6	14.63	9.99
x2 = 0.1979, x1 = 0.3957	50.3	28.3	17.5	11.53	8.07
x2 = 0.1982, x1 = 0.2378	28.6	17	11.04	7.72	5.63
x2 = 0.1986, x1 = 0.0794	10.66	7.28	5.26	3.98	3.12
x2 = 0.2954, x1 = 0.6203	72.6	40.5	24.7	16.15	11.16
x2 = 0.2959, x1 = 0.4832	60.5	34.2	21.1	13.97	9.79
x2 = 0.2963, x1 = 0.3457	45	26.1	16.5	11.2	8.04
x2 = 0.2968, x1 = 0.2077	27.8	17.2	11.44	8.18	6.09
x2 = 0.2972, x1 = 0.0694	13.16	9.12	6.68	5.08	4
x2 = 0.3934, x1 = 0.531	68.7	39.1	24.3	16.14	11.32
x2 = 0.3939, x1 = 0.4136	56.5	32.9	20.8	14.05	10.02
x2 = 0.3944, x1 = 0.2958	43	25.9	16.8	11.65	8.49
x2 = 0.395, x1 = 0.1777	28.8	18.3	12.49	8.99	6.8
x2 = 0.3955, x1 = 0.0593	16.8	11.66	8.53	6.54	5.13
x2 = 0.4912, x1 = 0.442	66.5	38.9	24.6	16.7	11.88
x2 = 0.4917, x1 = 0.3442	57.5	34.4	21.8	14.94	10.7
x2 = 0.4923, x1 = 0.2461	44.3	27.4	18.2	12.72	9.42
x2 = 0.493, x1 = 0.1478	32.9	21.3	14.71	10.66	8.1
x2 = 0.4934, x1 = 0.0493	22.1	15.2	10.99	8.33	6.54
x2 = 0.5887, x1 = 0.3532	69.7	41.6	26.2	17.9	12.88
x2 = 0.5893, x1 = 0.275	60	37.1	23.5	16.3	11.86
x2 = 0.5898, x1 = 0.1966	49.1	30.6	20.7	14.67	10.75
x2 = 0.5903, x1 = 0.118	39.4	25.6	17.7	12.8	9.64
x2 = 0.5909, x1 = 0.0394	29.3	20	14.32	10.68	8.29
x2 = 0.6861, x1 = 0.2646	74.6	45.2	28.8	19.8	14.34
x2 = 0.6866, x1 = 0.2059	66.4	41	26.5	18.5	13.45
x2 = 0.687, x1 = 0.1472	57.5	35.8	24.1	17.1	12.65
x2 = 0.6874, x1 = 0.0884	47.3	30.3	20.9	15.08	11.36
x2 = 0.6877, x1 = 0.0295	40.3	26.6	18.8	13.79	10.55
x2 = 0.7831, x1 = 0.1762	84.7	51.6	32.9	22.7	16.5
x2 = 0.7836, x1 = 0.1371	78.6	48.6	31.5	22	16.01
x2 = 0.7839, x1 = 0.0979	72.2	44.8	29.8	20.9	15.35
x2 = 0.7842, x1 = 0.0588	65.6	41.8	28.1	20	14.73
x2 = 0.7845, x1 = 0.0196	56.4	36.7	25	18	13.44
x2 = 0.8801, x1 = 0.0879	102	62.1	40.3	27.1	19.5
x2 = 0.8804, x1 = 0.0684	99.2	60.7	39.7	26.8	19.3
x2 = 0.8805, x1 = 0.0294	90.7	56.4	37.2	25.5	18.5
x2 = 0.8806, x1 = 0.0098	80.9	50.9	33.8	23.7	17.3
x2 = 0.8806, x1 = 0.0488	94.5	58.3	38.5	26.1	18.9

O=C1CCCC1 + CCCC[n+]1ccn(C)c1.F[P-](F)(F)(F)(F)F
298.15 K, 101.3 kPa
Conditions	viscosity [mPa·s]
x1 = 0.0936	175
x1 = 0.3093	66
x1 = 0.4012	42.2
x1 = 0.5514	19.23
